Data taken from US20230406853A1, “COVALENT CDK2-BINDING COMPOUNDS FOR THERAPEUTIC PURPOSES” (Umbra Therapeutics, Inc., priority 2021, published 2023).

Biological target: CycE1-CDK2 (Homo sapiens, UniProt P24941)
Experiment: Cdk2 Enzymatic TR-FRET Assay
Type: biochemical
Details: CDK2/CycE 5 nM, ATP 100 μM, 60 minutes pre-incubation with compound; read-out: CDK2 Kinase
Source text: A TR-FRET system was used to detect CycE1-CDK2 kinase activity. The assay used a Europium-labeled anti-phospho-Ser/Thr antibody and ULight™-labeled peptide substrate (eIF4E-binding protein 1). When CycE1-CDK2 phosphorylates the peptide the phosphorylated Thr is recognized by the Europium-labeled anti-phospho-Ser/Thr antibody. Upon excitation of the Europium donor fluorophore at 337 nm, energy is transferred to the ULight™ acceptor dye on the substrate, resulting in the emission of light at 665 nm. The fluorescent signal is proportional to the level of ULight™ peptide phosphorylation and to the kinase activity.
The stock solution was prepared as follows: • 1× Reaction buffer: 50 mM HEPES pH 7.5, 10 mM MgCl2, 0.5 mM TCEP, 0.01% Tween®20, 1 mM EGTA, 0.001% fatty acid free (faf)-BSA; • 1× Detection buffer: equilibrate the Detection buffer at RT for at least 20 minutes then dilute 10-fold the stock in water; • 4×ENZYME mix: CDK2/CycE enzyme (5 nM final concentration in kinase reaction) in 1× Reaction buffer; • 4×SUBSTRATE mix: 4E-BP substrate (50 nM final concentration in kinase reaction)+ATP (100 μM final concentration in kinase reaction) in 1× Reaction buffer • 2×STOP/DETECTION mix: EDTA (10 mM final concentration in assay)+Anti-Phosphate antibody (0.5 nM final concentration in assay) in 1× Detection buffer • Neutral Control: Assay with no inhibition (MAX activity) • Inhibitor Control: Assay with IC100 (1 mM) reference inhibitor JNJ7706621 (MIN activity)
The assay was assembled directly in a white, small volume, Proxiplate (PerkinElmer) as follows: • Step 1: Charge compounds=5 μL/well • Step 2: Charge kinase=2.5 μL/well→total volume 7.5 μL/well • The plate is sealed and incubated at room temperature for 60 minutes • Step 3: Substrate mix (substrate/ATP)=2.5 μL/well→total enzymatic reaction volume 10 μL/well • The plate is sealed and incubated at room temperature for 60 minutes • Step 4: Stop/Detection mix (EDTA/antibody)=10 μL/well→total volume 20 μL/well • The plate is sealed and incubated at room temperature for at least 2 hours and fluorescence signal is measured at PHERAstar FSX The reading conditions are the followings for PHERAstar FSX:
A 384-microtiter plate (MTP), containing 20 test compounds in eight-points dose response, is prepared. Test compounds dose response curves are prepared in automation in 100% DMSO in a CyBio Felix, starting from a DMSO stock solution of 10 mM. To obtain the eight-points dose-response curve, a serial dilution protocol in 100% DMSO is performed for each compound by using a 96 MTP as a support. 20 μL of the 10 mM stock solutions are transferred in row A of a 96 MTP U-bottom from column 2 to 11 for a total of 10 compounds/plate. Starting from the 10 mM stock, serial dilutions across rows, from A to B and proceeding up to H, are performed for each compound by transferring 6.3 μL of the more concentrated fluid in 13.7 μL of 100% DMSO.
In order to generate duplicate data points each well of the 96 MTP is then replicated into two wells of a 384 MTP plate for each compound and for each concentration to be tested. The 384 MTP compound plate is used as source plate in a “mother to child” process with a CyBi®-Well dispenser in which 1 μL of compound is moved into a destination plate pre-filled with 24 μL of reaction buffer, obtaining 2× concentrated compound solution.
Genedata Screener® 17.0 was used for data analysis. In the implemented workflow, the following calculations were conducted: • Calculate the Response Value (KRV) from the respective original data as follow:
HTRF Assay: Ratio=665 nm_FRET/620 nm_Ab*10000 • Calculate the % Inhibition of the compound (Inhibitory effect). KRV was normalized versus Neutral Controls and Inhibitor Controls (JNJ7706621) to obtain Activity % according to the following formula:
Activity %=−100*(x−<Neutral Control>)/(<Inhibitor Control>−<Neutral Control>) […]

Row | SMILES | IC50 [µM]
1 | O=C(Cn1c(=O)ccc2cnc(NCC3CC3)nc21)Nc1ccc(S(=O)(=O)n2cnc(C3CC3)n2)cc1 [Compound 278] | > 200
2 | O=C(Cn1c(=O)ccc2cnc(NCC3CCCCC3)nc21)Nc1ccc(S(=O)(=O)n2cnc(C3CC3)n2)cc1 [Compound 282] | > 200
3 | CCOCc1cc2cnc(NC3CCN(S(C)(=O)=O)CC3)nc2n(CCCS(=O)(=O)n2cnc(-c3ccccc3)n2)c1=O [Compound 256] | > 200
4 | CS(=O)(=O)N1CCC(Nc2ncc3ccc(=O)n(CCOCCCS(=O)(=O)n4cnc(-c5ccccc5)n4)c3n2)CC1 [Compound 230] | 10 to 100
5 | CCOCc1cc2cnc(NC3CCN(S(C)(=O)=O)CC3)nc2n(CCCS(=O)(=O)n2cncn2)c1=O [Compound 265] | 10 to 100
6 | CC(C)(C)c1ncn(S(=O)(=O)c2ccc(NC(=O)Cn3c(=O)ccc4cnc(NC5CCN(S(C)(=O)=O)CC5)nc43)cc2)n1 [Compound 262] | > 200
7 | O=c1ccc2cnc(NC3CC3)nc2n1CCCS(=O)(=O)n1cnc(C2CC2)n1 [Compound 271] | < 10
8 | Cc1cc(S(=O)(=O)n2cncn2)ccc1NC(=O)Cn1c(=O)ccc2cnc(NC3CCN(S(C)(=O)=O)CC3)nc21 [Compound 250] | < 10
9 | CCOCc1cc2cnc(NC3CCN(S(C)(=O)=O)CC3)nc2n(CCCS(=O)(=O)n2cnc(C3CC3)n2)c1=O [Compound 261] | 10 to 100
10 | CS(=O)(=O)N1CCC(Nc2ncc3cc(C(F)F)c(=O)n(CC(=O)Nc4ccc(S(=O)(=O)n5cnc(C6CC6)n5)cc4)c3n2)CC1 [Compound 234] | < 10
11 | CC(C)CNc1ncc2ccc(=O)n(CC(=O)Nc3ccc(S(=O)(=O)n4cnc(C5CC5)n4)cc3)c2n1 [Compound 292] | > 200
12 | CS(=O)(=O)N1CCC(Nc2ncc3ccc(=O)n(CCOCCCS(=O)(=O)n4cnc(C5CC5)n4)c3n2)CC1 [Compound 233] | < 10
13 | CS(=O)(=O)N1CCC(Nc2ncc3cc(CO)c(=O)n(CCCS(=O)(=O)n4cncn4)c3n2)CC1 [Compound 296] | < 10
14 | CS(=O)(=O)N1CCC(Nc2ncc3ccc(=O)n(CCOCCCS(=O)(=O)n4cncn4)c3n2)CC1 [Compound 231] | < 10
15 | CS(=O)(=O)N1CCC(Nc2ncc3cc(Cl)c(=O)n(CCCS(=O)(=O)n4cnc(-c5ccccc5)n4)c3n2)CC1 [Compound 287] | < 10
16 | O=c1ccc2cnc(NCC3CCCCC3)nc2n1CCCS(=O)(=O)n1cnc(C2CC2)n1 [Compound 268] | > 200
17 | CS(=O)(=O)N1CCC(Nc2ncc3ccc(=O)n(CC(=O)Nc4ccc(S(=O)(=O)n5cncn5)cc4)c3n2)CC1 [Compound 228] | < 10
18 | CS(=O)(=O)N1CCC(Nc2ncc3cc(C(F)F)c(=O)n(CCOC(=O)c4ccc(S(=O)(=O)n5cnc(C6CC6)n5)cc4)c3n2)CC1 [Compound 227] | < 10
19 | CS(=O)(=O)N1CCC(Nc2ncc3ccc(=O)n(CC(=O)Nc4ccc(S(=O)(=O)n5cnc(C6CCCC6)n5)cc4)c3n2)CC1 [Compound 273] | > 200
20 | CC(C(=O)Nc1ccc(S(=O)(=O)n2cnc(C3CC3)n2)cc1)n1c(=O)ccc2cnc(NC3CCN(S(C)(=O)=O)CC3)nc21 (centres unmarked) [Compound 254] | < 10
21 | CCOC(=O)Cc1ncn(S(=O)(=O)c2ccc(NC(=O)Cn3c(=O)ccc4cnc(NC5CCN(S(C)(=O)=O)CC5)nc43)cc2)n1 [Compound 260] | < 10
22 | CS(=O)(=O)N1CCC(Nc2ncc3ccc(=O)n(CC(=O)Nc4ccc(S(=O)(=O)n5cnc(C6CCC6)n5)cc4)c3n2)CC1 [Compound 258] | > 200
23 | Cc1cc(NC(=O)Cn2c(=O)ccc3cnc(NC4CCN(S(C)(=O)=O)CC4)nc32)ccc1S(=O)(=O)n1cnc(-c2ccccc2)n1 [Compound 238] | < 10
24 | CS(=O)(=O)N1CCC(Nc2ncc3ccc(=O)n(CC(=O)Nc4ccc(S(=O)(=O)n5cnc(CO)n5)cc4)c3n2)CC1 [Compound 259] | < 10
25 | CS(=O)(=O)N1CCC(Nc2ncc3cc(C(F)F)c(=O)n(CCOC(=O)c4ccc(S(=O)(=O)n5cncn5)cc4)c3n2)CC1 [Compound 226] | < 10
26 | O=C(Cn1c(=O)ccc2cnc(NC3CCCCCC3)nc21)Nc1ccc(S(=O)(=O)n2cnc(C3CC3)n2)cc1 [Compound 295] | > 200
27 | CS(=O)(=O)N1CCC(Nc2ncc3cc(Cl)c(=O)n(CCCS(=O)(=O)n4cncn4)c3n2)CC1 [Compound 285] | < 10
28 | CS(=O)(=O)N1CCC(Nc2ncc3ccc(=O)n(CCS(=O)(=O)n4cnc(-c5ccccc5)n4)c3n2)CC1 [Compound 274] | < 10

Other lines, results leading:

Row | IC50 [µM] | SMILES
29 | < 10 | CS(=O)(=O)N1CCC(Nc2ncc3ccc(=O)n(Cc4ccc(S(=O)(=O)n5cnc(-c6ccccc6)n5)cc4)c3n2)CC1 [Compound 242]
30 | < 10 | CS(=O)(=O)N1CCC(Nc2ncc3ccc(=O)n(CC(=O)NCc4ccc(S(=O)(=O)n5cnc(C6CC6)n5)cc4)c3n2)CC1 [Compound 235]
31 | < 10 | CS(=O)(=O)N1CCC(Nc2ncc3cc(CCO)c(=O)n(CCCS(=O)(=O)n4cnc(C5CC5)n4)c3n2)CC1 [Compound 276]
32 | < 10 | CS(=O)(=O)N1CCC(Nc2ncc3ccc(=O)n(CC(=O)NCc4ccc(S(=O)(=O)n5cncn5)cc4)c3n2)CC1 [Compound 236]
33 | < 10 | O=c1ccc2cnc(NC3CC(F)(F)C3)nc2n1CCCS(=O)(=O)n1cnc(C2CC2)n1 [Compound 263]
34 | < 10 | CS(=O)(=O)N1CCC(Nc2ncc3cc(CO)c(=O)n(CCCS(=O)(=O)n4cnc(-c5ccccc5)n4)c3n2)CC1 [Compound 290]
35 | < 10 | CS(=O)(=O)N1CCC(Nc2ncc3ccc(=O)n(Cc4ccc(S(=O)(=O)n5cnc(C6CC6)n5)cc4)c3n2)CC1 [Compound 243]
36 | < 10 | CS(=O)(=O)N1CCC(Nc2ncc3ccc(=O)n(CC(=O)Nc4ccc(S(=O)(=O)n5cnc(-c6ccccc6)n5)cc4)c3n2)CC1 [Compound 229]
37 | < 10 | Cc1cc(S(=O)(=O)n2cnc(C3CC3)n2)ccc1NC(=O)Cn1c(=O)ccc2cnc(NC3CCN(S(C)(=O)=O)CC3)nc21 [Compound 251]
38 | < 10 | CS(=O)(=O)N1CCC(Nc2ncc3cc(CCO)c(=O)n(CCCS(=O)(=O)n4cnc(-c5ccccc5)n4)c3n2)CC1 [Compound 284]
39 | < 10 | CC(=O)Nc1ncn(S(=O)(=O)c2ccc(NC(=O)Cn3c(=O)ccc4cnc(NC5CCN(S(C)(=O)=O)CC5)nc43)cc2)n1 [Compound 272]
40 | < 10 | COCCc1cc2cnc(NC3CCN(S(C)(=O)=O)CC3)nc2n(CCCS(=O)(=O)n2cnc(C3CC3)n2)c1=O [Compound 288]
41 | < 10 | Cc1cc(NC(=O)Cn2c(=O)ccc3cnc(NC4CCN(S(C)(=O)=O)CC4)nc32)ccc1S(=O)(=O)n1cncn1 [Compound 237]
42 | < 10 | CS(=O)(=O)N1CCC(Nc2ncc3ccc(=O)n(CCCS(=O)(=O)n4cnc(C5CC5)n4)c3n2)CC1 [Compound 245]
43 | < 10 | CS(=O)(=O)N1CCC(Nc2ncc3ccc(=O)n(CCCS(=O)(=O)n4cncn4)c3n2)CC1 [Compound 244]
44 | < 10 | O=c1ccc2cnc(NC3CCOCC3)nc2n1CCCS(=O)(=O)n1cnc(C2CC2)n1 [Compound 257]
45 | < 10 | CC(C(=O)Nc1ccc(S(=O)(=O)n2cncn2)cc1)n1c(=O)ccc2cnc(NC3CCN(S(C)(=O)=O)CC3)nc21 (centres unmarked) [Compound 294]
46 | < 10 | CS(=O)(=O)N1CCC(Nc2ncc3cc(CCO)c(=O)n(CCCS(=O)(=O)n4cncn4)c3n2)CC1 [Compound 297]
47 | < 10 | Cc1ncn(S(=O)(=O)c2ccc(NC(=O)Cn3c(=O)ccc4cnc(NC5CCN(S(C)(=O)=O)CC5)nc43)cc2)n1 [Compound 253]
